Experimental data: ChEMBL document CHEMBL1154382, “Preliminary SAR analysis of novel antiproliferative N(6),5'-bis-ureidoadenosine derivatives” (2009)
Activity calls are given as the source filed them.

Tests used:
Assay type in all cases: functional
UO-31 = assay: Antiproliferative activity against human UO31 cells at 10 uM assessed as cell growth inhibition relative to control
PC-3 = assay: Antiproliferative activity against human PC3 cells at 10 uM assessed as cell growth inhibition relative to control
HOP-92 = assay: Antiproliferative activity against human HOP92 cells at 10 uM assessed as cell growth inhibition relative to control
NCI-H226 = assay: Antiproliferative activity against human NCI-H226 cells at 10 uM assessed as cell growth inhibition relative to control
MOLT-4 = assay: Antiproliferative activity against human MOLT4 cells at 10 uM assessed as cell growth inhibition relative to control
UACC-62 = assay: Antiproliferative activity against human UACC62 cells at 10 uM assessed as cell growth inhibition relative to control
MDA-MB-231 = assay: Antiproliferative activity against human MDA-MB-231 cells at 10 uM assessed as cell growth inhibition relative to control
M14 = assay: Antiproliferative activity against human M14 cells at 10 uM assessed as cell growth inhibition relative to control
SK-MEL-5 = assay: Antiproliferative activity against human SK-MEL-5 cells at 10 uM assessed as cell growth inhibition relative to control
NCI-H23 = assay: Antiproliferative activity against human NCI-H23 cells at 10 uM assessed as cell growth inhibition relative to control
NCI-H322M = assay: Antiproliferative activity against human NCI-H322M cells at 10 uM assessed as cell growth inhibition relative to control
HOP-62 = assay: Antiproliferative activity against human HOP62 cells at 10 uM assessed as cell growth inhibition relative to control
OVCAR-8 = assay: Antiproliferative activity against human OVCAR8 cells at 10 uM assessed as cell growth inhibition relative to control
HL-60(TB) = assay: Antiproliferative activity against human HL-60(TB) cells at 10 uM assessed as cell growth inhibition relative to control
NCI-H522 = assay: Antiproliferative activity against human NCI-H522 cells at 10 uM assessed as cell growth inhibition relative to control
SK-MEL-28 = assay: Antiproliferative activity against human SK-MEL-28 cells at 10 uM assessed as cell growth inhibition relative to control
NCI-H460 = assay: Antiproliferative activity against human NCI-H460 cells at 10 uM assessed as cell growth inhibition relative to control
A498 = assay: Antiproliferative activity against human A498 cells at 10 uM assessed as cell growth inhibition relative to control
U-251 = assay: Antiproliferative activity against human U251 cells at 10 uM assessed as cell growth inhibition relative to control
K562 = assay: Antiproliferative activity against human K562 cells at 10 uM assessed as cell growth inhibition relative to control
Malme-3M = assay: Antiproliferative activity against human MALME-3M cells at 10 uM assessed as cell growth inhibition relative to control
EKVX = assay: Antiproliferative activity against human EKVX cells at 10 uM assessed as cell growth inhibition relative to control
RPMI8266 = assay: Antiproliferative activity against human […] cells at 10 uM assessed as cell growth inhibition relative to control
SNB-75 = assay: Antiproliferative activity against human SNB75 cells at 10 uM assessed as cell growth inhibition relative to control
DU-145 = assay: Antiproliferative activity against human DU145 cells at 10 uM assessed as cell growth inhibition relative to control
HCT-15 = assay: Antiproliferative activity against human HCT15 cells at 10 uM assessed as cell growth inhibition relative to control
BT-549 = assay: Antiproliferative activity against human BT549 cells at 10 uM assessed as cell growth inhibition relative to control
OVCAR-4 = assay: Antiproliferative activity against human OVCAR4 cells at 10 uM assessed as cell growth inhibition relative to control
HT-29 = assay: Antiproliferative activity against human HT-29 cells at 10 uM assessed as cell growth inhibition relative to control
SF-268 = assay: Antiproliferative activity against human SF268 cells at 10 uM assessed as cell growth inhibition relative to control
CCRF-CEM = assay: Antiproliferative activity against human CCRF-CEM cells at 10 uM assessed as cell growth inhibition relative to control
T47D = assay: Antiproliferative activity against human T47D cells at 10 uM assessed as cell growth inhibition relative to control
SK-MEL-2 = assay: Antiproliferative activity against human SK-MEL-2 cells at 10 uM assessed as cell growth inhibition relative to control
IGROV-1 = assay: Antiproliferative activity against human IGROV1 cells at 10 uM assessed as cell growth inhibition relative to control
RXF 393 = assay: Antiproliferative activity against human RXF393 cells at 10 uM assessed as cell growth inhibition relative to control
SNB-19 = assay: Antiproliferative activity against human SNB19 cells at 10 uM assessed as cell growth inhibition relative to control
Hs-578T = assay: Antiproliferative activity against human Hs 578T cells at 10 uM assessed as cell growth inhibition relative to control
TK-10 = assay: Antiproliferative activity against human TK10 cells at 10 uM assessed as cell growth inhibition relative to control
MCF7 = assay: Antiproliferative activity against human MCF7 cells at 10 uM assessed as cell growth inhibition relative to control
SK-OV-3 = assay: Antiproliferative activity against human SKOV3 cells at 10 uM assessed as cell growth inhibition relative to control
HCT-116 = assay: Antiproliferative activity against human HCT116 cells at 10 uM assessed as cell growth inhibition relative to control
COLO 205 = assay: Antiproliferative activity against human COLO205 cells at 10 uM assessed as cell growth inhibition relative to control
MDA-MB-468 = assay: Antiproliferative activity against human MDA-MB-468 cells at 10 uM assessed as cell growth inhibition relative to control
SF-539 = assay: Antiproliferative activity against human SF539 cells at 10 uM assessed as cell growth inhibition relative to control
CAKI-1 = assay: Antiproliferative activity against human Caki1 cells at 10 uM assessed as cell growth inhibition relative to control
ACHN = assay: Antiproliferative activity against human ACHN cells at 10 uM assessed as cell growth inhibition relative to control
SF-295 = assay: Antiproliferative activity against human SF295 cells at 10 uM assessed as cell growth inhibition relative to control
UACC-257 = assay: Antiproliferative activity against human UACC257 cells at 10 uM assessed as cell growth inhibition relative to control
A549 = assay: Antiproliferative activity against human A549 cells at 10 uM assessed as cell growth inhibition relative to control
786-0 = assay: Antiproliferative activity against human 786-0 cells at 10 uM assessed as cell growth inhibition relative to control
KM12 = assay: Antiproliferative activity against human KM12 cells at 10 uM assessed as cell growth inhibition relative to control
SN12C = assay: Antiproliferative activity against human SN12C cells at 10 uM assessed as cell growth inhibition relative to control
OVCAR-5 = assay: Antiproliferative activity against human OVCAR5 cells at 10 uM assessed as cell growth inhibition relative to control
SW-620 = assay: Antiproliferative activity against human SW620 cells at 10 uM assessed as cell growth inhibition relative to control
OVCAR-3 = assay: Antiproliferative activity against human OVCAR-3 cells at 10 uM assessed as cell growth inhibition relative to control
LOX IMVI = assay: Antiproliferative activity against human LOXIMVI cells at 10 uM assessed as cell growth inhibition relative to control
HCC 2998 = assay: Antiproliferative activity against human HCC2998 cells at 10 uM assessed as cell growth inhibition relative to control

Measured: growth inhibition (GI)

CNC(=O)NC[C@H]1O[C@@H](n2cnc3c(NC(=O)Nc4ccccc4)ncnc32)[C@H](O)[C@@H]1O
inactive: UO-31 | PC-3 | HOP-92 | NCI-H226 | MOLT-4 | UACC-62 | MDA-MB-231 | M14 | SK-MEL-5 | NCI-H23 | NCI-H322M | HOP-62 | OVCAR-8 | HL-60(TB) | NCI-H522 | SK-MEL-28 | NCI-H460 | A498 | U-251 | K562 | Malme-3M | EKVX | RPMI8266 | SNB-75 | DU-145 | HCT-15 | BT-549 | OVCAR-4 | HT-29 | SF-268 | CCRF-CEM | T47D | SK-MEL-2 | IGROV-1 | RXF 393 | SNB-19 | Hs-578T | TK-10 | MCF7 | SK-OV-3 | HCT-116 | COLO 205 | MDA-MB-468 | SF-539 | CAKI-1 | ACHN | SF-295 | UACC-257 | A549 | 786-0 | KM12 | SN12C | OVCAR-5 | SW-620 | OVCAR-3 | LOX IMVI | HCC 2998
